Experimental findings from the NIST ThermoML archive (doi:10.1016/j.fluid.2014.07.041) are described below.

Structures are written as SMILES. ± gives the expanded uncertainty stated by the source.

Data set [1] is described as follows: Boiling temperature at pressure P. To be noted: 101.33 kPa; Liquid; Ebulliometric method (Recirculating still).
The conditions of data set [2]: 298.15 K; 101.33 kPa; Liquid; Vibrating tube method.

Consider `CCOCCO` [2-ethoxyethan-1-ol], for which the “Boiling temperature at pressure P” value in data set [1] is 135.47 ± 0.1 °C. Also, in data set [2], the mass density amounted to 928.73 ± 2 kg/m3.
For `COCCO` [2-methoxyethan-1-ol], the “Boiling temperature at pressure P” value in data set [1] was 124.52 ± 0.1 °C. In data set [2], the mass density turned out to be 965.31 ± 2 kg/m3.
`CC1CCCCC1` [methylcyclohexane]: the “Boiling temperature at pressure P” value in data set [1] was 100.73 ± 0.1 °C. The mass density in data set [2] is listed as 766.29 ± 2 kg/m3.
